Test: Shell wheel test (corrosion inhibition)
Conditions: 50 ppm of a 24% solution of the inhibitor; salt water/petroleum mixture 9:1, 5% NaCl, pH 3.5; 40 rpm, 70° C., 24 hours; from decrease in coupon mass, based on a blank value
Procedure: The compounds according to the invention were tested as corrosion inhibitors in the Shell wheel test. Coupons of C steel (DIN 1.1203 with 15 cm^2 surface area) were immersed in a salt water/petroleum mixture (9:1,5% strength NaCl solution adjusted to pH 3.5 with acetic acid) and exposed to this medium at a speed of 40 rpm at 70° C. for 24 hours. The inhibitor dose was 50 ppm of a 24% solution of the inhibitor. The protection values were calculated from the decrease in the mass of the coupons, based on a blank value.

SMILES: CCCCCCCC/C=C\CCCCCCCC(=O)NC(CCSC)C(=O)[O-].[K+] (racemic) [example 2, N-Oleoyl-DL-methionine potassium Salt]
- ø protection %: 69%
